Reference: publication PMC3510080, “Identification of Compounds with Anti-Proliferative Activity against Trypanosoma brucei brucei Strain 427 by a Whole Cell Viability Based HTS Campaign” (PLoS Neglected Tropical Diseases, 2012)
In brackets after ≈: the same amount, converted by molar mass. Several values for one entry are separate records, joined by “and”; a condition that tells them apart may be missing. Identical values can stand only once. Like-named read-outs stand apart in the source and are kept apart here.

How the values were obtained:
[1] = tested on: L. donovani strain MHOM/ET/67/L82 axenic amastigotes; assay: L. donovani axenic amastigote fluorescence assay; SI versus L6 cells; format: cell-based, Leishmania donovani; conditions: for IC50: axenic amastigotes, 70 h, read-out: Compound activity L.D (IC50); for Selectivity Index L.D: relative to L6 cells
Description: L6 rat skeletal myoblasts, [29] were purchased from the American Type Culture Collection (ATCC, Rockville, MD, USA; ATCC number CRL 1458). This cell line was used for cytotoxicity testing to calculate an SI against T.b. rhodesiense and screened alongside the T.b. rhodesiense, P. falciparum, T. cruzi and L. donovani assays. L6 were also the host cells for the T. cruzi assay. Assays were performed in 96-well microtiter plates, each well containing 100 µl of RPMI 1640 medium supplemented with 1% L-glutamine (200 mM), 10% FCS, and 4000 L6 cells. Serial drug dilutions of eleven 3-fold dilution steps covering a range from 100 to 0.002 µg/ml were prepared. After 70 hours of incubation the plates were inspected under an inverted microscope to assure growth of the controls and sterile conditions. Ten µl of resazurin solution (resazurin, 12.5 mg in 100 ml double-distilled water) was then added to each well and the plates incubated for another 2 hours. Then the plates were read with a Spectramax Gemini XS microplate fluorometer (Molecular Devices Cooperation, Sunnyvale, CA, USA) using an excitation wavelength of 536 nm and an emission wavelength of 588 nm. Data was analysed using the microplate reader software Softmax Pro (Molecular Devices, USA). Podophyllotoxin was used as a positive control in the assay.
Amastigotes of L. donovani strain MHOM/ET/67/L82 were grown in axenic culture at 37°C in SM medium at pH 5.4 supplemented with 10% heat-inactivated FCS under an atmosphere of 5% CO2 in air. One hundred µl of culture medium containing 10^5 amastigotes from axenic culture with or without a serial drug dilution were seeded in 96-well microtitre plates. Serial drug dilutions of eleven 3-fold dilution steps covering a range from 100 to 0.002 µg/ml were prepared. After 70 hours of incubation the plates were inspected under an inverted microscope to assure growth of the controls and sterile conditions. Ten µl of resazurin solution (12.5 mg resazurin dissolved in 100 ml distilled water) were then added to each well and the plates incubated for another 2 hours. The plates were then read with a Spectramax Gemini XS microplate fluorometer (Molecular Devices, USA) using an excitation wavelength of 536 nm and an emission wavelength of 588 nm. Data was analysed using the software Softmax Pro (Molecular Devices, USA). Decrease of fluorescence ( = inhibition) was expressed as percentage of the fluorescence of control cultures and plotted against the drug concentrations. From the sigmoidal inhibition curves the IC50 values were calculated. Miltefosine served as a known drug control in this assay.

[2] = tested on: T.b. brucei bloodstream form lister 427; assay: T.b. brucei Alamar Blue viability estimation assay (384-well HTS, retest and rescreen); format: cell-based, Trypanosoma brucei brucei; conditions: for Primary Screening Activity 10.2µM (%): single point, inhibition relative to controls; for Estimated Selectivity Index: retest campaign
Description: T.b. brucei lister 427 cells were maintained in log phase growth in 25 cm^2 tissue culture flasks (Corning, NY, USA) by sub-culturing at either 24 or 48 hour intervals. Cells were grown in HMI-9 medium, supplemented with 10% fetal calf serum (FCS) and 100 IU/ml penicillin/streptomycin (Invitrogen, Carlsbad, California, USA) with incubation at 5% CO2 at 37°C in humidified conditions. HEK293 cells were maintained in high glucose DMEM with L-glutamine, supplemented with 1× non-essential amino acids (NEAA; Invitrogen, USA) and 1 mM sodium pyruvate. Growth conditions were in 5% CO2 at 37°C, under humidified conditions.
All reagent and cell additions were made with a Multidrop liquid handler (Thermo Scientific, Newington, NH, USA) under sterile conditions. Fifty-five microliters of 2000 cells/mL of T.b. brucei in HMI-9 medium were added to a black, clear-bottomed 384-well lidded plate (BD Biosciences, Franklin Lanes, NJ, USA). Cells were incubated for 24 hours at 37°C in an atmosphere of 5% CO2 before addition of 5 µl of compounds/DMSO for control wells. Compounds suspended in 100% DMSO or 100% DMSO as controls were pre-diluted 1∶21 in high glucose DMEM without FCS by using a Minitrack robotic liquid handler (PerkinElmer, Waltham, MA, USA). Five microliters of diluted sample was added to the plate to give a final DMSO concentration of 0.417% in the assay. Cells were incubated for an additional 48 hours at 37°C. Ten microliters of 70% Alamar Blue (Biosource, Bethesda, MD, USA) was added to each well (diluted in HMI-9 medium supplemented with 10% FCS) to a final concentration of 10% in the assay. The plate was incubated for two hours under the same conditions, then incubated for 22 hours in the dark at room temperature. Wells were read at 535 nm (excitation) and 590 nm (emission) wavelengths on a Victor II Wallac plate reader (PerkinElmer, USA). Specific dilutions are explained further in the primary and retest assay methodology. Reference drugs used in the assay were pentamidine (Sigma-Aldrich, St Louis, MO, USA), diminazene aceturate (Sigma-Aldrich, USA) and puromycin (Calbiochem, San Deigo, CA, USA). Pentamidine is used to treat patients with HAT and diminazene is a veterinary drug used against T.b. brucei to combat infections in cattle.
Primary screening of the library, consisting of 87,296 compounds in two hundred and forty eight 384-well plates, was undertaken in single point against T.b. brucei. Stock solutions consisted of test compound at a concentration of 5 mM in 100% DMSO. One µl of each compound stock solution was diluted by the addition of 40 µl of dilution medium (high glucose DMEM without FCS) by a multidrop liquid handler (Thermo Scientific, USA). A 5 µl sample of this diluted solution was then added to the trypanosome assay plate. The final concentration of test compound in the assay was […] and that of DMSO was 0.42% v/v. Compounds were screened over a total of 11 days, at an average of 80 plates per day, taking into consideration that the assay incubation was 3 days total. Test compounds were added to plates in batches of 20 at two hour intervals, to maintain the timing of additions and reads.
Compound activity was calculated as the percentage inhibition in relation to positive and negative controls. […] These in-plate negative controls were used in an effort to normalise compound activity in relation to any plate to plate variation in the assay signal. A whole 384-well control plate was included in each day's screening, one per 20 compound plates containing half a plate of 2 µM pentamidine for the positive assay control, and half a plate of 0.42% v/v DMSO as a negative control. The positive assay control was used to calculate compound activity for batches of 20 compound plates. As well providing the positive control data, these whole plate controls were used for the calculation of the Z' to measure the reproducibility of the assay.

[3] = tested on: T.b. brucei; assay: Determination of the cidal action of compounds (MIC and parasite counts); format: cell-based, Trypanosoma brucei brucei; conditions: for MIC: Trypanosoma brucei, minimum concentration with plateau of activity (>95%) in Alamar Blue concentration response curve, read-out: minimum inhibitory concentration (MIC); for action cidal or static at the MIC: parasites cleared by 72 hours at MIC; for incubation time at the MIC for complete clearance of T.b. brucei parasites: cell counts at 24, 48 and 72 hours (29 hours from Presto Blue)
Source text: The MIC was extrapolated as the minimum concentration at which there was a plateau of activity in the assay (>95% activity).

[4] = HEK293 IC50 / T.b. brucei IC50, > if less than 50% activity at 75.8 µM in HEK293
[5] = Trypanosoma brucei, read-out: Compound activity T.B (IC50), re-synthesised/re-purchased compounds, three experiments, two replicates each
[6] = re-synthesised/re-purchased compounds, three experiments, two replicates each, read-out: Compound activity T.B (IC50)
[7] = Trypanosoma brucei, re-synthesised/re-purchased compounds, three experiments, two replicates each, read-out: Compound activity T.B (IC50)
[8] = Trypanosoma brucei, Alamar Blue-based HTS assay format, run with time to kill study, read-out: Activity (IC50 value) AB assay
[9] = Trypanosoma brucei, read-out: Activity (IC50 value) AB assay, Alamar Blue-based HTS assay format, run with time to kill study
[10] = Trypanosoma brucei, retest campaign from stock solutions, duplicate, read-out: Retest IC50 T.b.brucei
[11] = Trypanosoma brucei, 13 control plates, triplicate dose-response, read-out: IC50 of reference compounds, primary screening campaign
[12] = Trypanosoma brucei, reference compounds, read-out: IC50 against T.b. brucei, retest screening campaign

Compound	IC50 ([1]; Leishmania donovani, L6, 70 h) [nM]	Selectivity Index L.D [1]	Selectivity Index T.B [2, 4]	IC50 [2, 5] [nM]	IC50 [2, 6] [nM]	IC50 [2, 7] [nM]	MIC [3] [µM]	action cidal or static at the MIC [3]	IC50 [2, 8] [nM]	Primary Screening Activity 10.2µM (%) [2] [%]	IC50 [2, 10] [nM]	Estimated Selectivity Index ([2]; HEK293 IC50 / T.b. brucei IC50)	also measured
CCS(=O)(=O)N1CCCc2ccc(NS(=O)(=O)c3ccccc3F)cc21 [Compound 5]	6600 ± 1560	3.29	>35.9	2100	2110 ± 130								
Cc1cc(O)nc(-n2nc(C)cc2NC(=O)C2CCCC2)n1 [Compound 4]	488 ± 154	1.84	25 and 24.6	3100	3080 ± 290								
CCc1ccccc1N=C(NCCN1CCOCC1)NC(=O)c1ccccc1 [Compound 8]	> 263000		>29.0		2610 ± 320	2600							
O=C(Nc1ccc(Cl)c(-c2nc3ncccc3o2)c1)c1ccco1 [Compound 7]	1800			220	218 ± 7.14		0.99 (≈ 0.336 µg/mL)	cidal	198 ± 1.28	100			population remaining at the MIC, 24 hours ([3]; 24 hours): 0.41%; population remaining at the MIC, 48 hours ([3]; 48 hours): 0.06%; IC50 [1]: 1820 ± 277 nM; IC50 ([2]; Trypanosoma brucei, read-out: Retest IC50 T.b.brucei, retest campaign from stock solutions, duplicate): 169 nM
O=C(NCCc1n[nH]c(-c2ccc(F)cc2)n1)c1cccc(F)c1 [Compound 2]	47300 ± 324	2.53				4000 ± 55.5	19.8 (≈ 6.5 µg/mL)	cidal		99.5	1930	21.6	IC50 [2, 9]: 4710 ± 272 nM
COc1ccc(C[C@H](N)C(=O)N[C@H]2[C@@H](O)[C@H](n3cnc4c(N(C)C)ncnc43)O[C@@H]2CO)cc1 [Puromycin, puromycin, reference compound]							1.15 (≈ 0.542 µg/mL)		64.1 ± 0.24			less than 10	incubation time at the MIC for complete clearance of T.b. brucei parasites [3]: 24 h; Selectivity Index T.B [2]: 8.90; IC50 ([2]; 13 control plates, triplicate dose-response, read-out: IC50 of reference compounds, primary screening campaign): 61.9 ± 6.8 nM; IC50 [2, 11]: 61.9 ± 6.8 nM; IC50 ([2]; Trypanosoma brucei, read-out: Reference Compound Activity T.B (IC50), during rescreening of resynthesized compounds): 58.4 ± 0.769 nM; IC50 [2, 12]: 138 ± 15.7 nM
N=C(N)c1ccc(OCCCCCOc2ccc(C(=N)N)cc2)cc1 [Pentamidine, pentamidine, reference compound]							0.04 (≈ 0.0136 µg/mL)		5.81 ± 0.707				incubation time at the MIC for complete clearance of T.b. brucei parasites [3]: 72 h; Selectivity Index T.B [2]: >283; IC50 [2, 11]: 14.7 ± 4.7 nM; IC50 ([2]; Trypanosoma brucei, during rescreening of resynthesized compounds, read-out: Reference Compound Activity T.B (IC50)): 3.52 ± 0.36 nM; IC50 [2, 12]: 7.8 ± 3.6 nM
CCOc1ccc(OCc2ccc(C(=O)N3CCCC(C)C3)cc2)cc1 (centres unmarked) [Compound 3]	16100 ± 1700	3.09	>67.1		1130 ± 347	1100				99	2560	16.3	
CC(C)(C)C(=O)NCCc1csc(-c2cccc(F)c2)n1 [Compound 1]	46100 ± 22400	1.35	>96.0		785 ± 82.9	790	3.97 (≈ 1.22 µg/mL)	cidal	1100 ± 65.1	100	441	94.6	
CCC(C)NC(=O)c1nc(-c2ccccc2)cnc1N (centres unmarked) [Compound 6]	34000 ± 5600	0.525	>65.3		1160 ± 304	1200	9.92 (≈ 2.68 µg/mL)	cidal					IC50 [2, 9]: 160 ± 40.3 nM
